Reference: US6670363B1, “Azole compounds as therapeutic agents for fungal infections” (Ranbaxy Laboratories Limited, priority 2000, dated 2003)
In brackets after ≈: the same amount, converted by molar mass.

Experiments:
[1] = system: A. fumigatus s 1008; assay: In vitro MIC, NCCLS M38P broth method (RPMI 1640/MOPS pH7), Aspergillus fumigatus; format: cell-based; conditions: A. fumigatus strain 1008
[2] = system: Candida; assay: In vitro MIC, NCCLS M27A, Candida species; format: cell-based; parameters: MIC, Candida albicans 1.549 / MIC, Candida albicans Y-01-19 / MIC, C. krusei 766-1 / MIC, C. krusei Q. C / MIC, Candida tropicalis ATCC / MIC, C. glabrata 90030: unit not given beside the values; MIC, Candida albicans A 26 / MIC, C. parapsilosis Q. C.: unit not given here; conditions: for MIC, C. glabrata 90030: C. glabrata strain 90030; for MIC, C. krusei 766-1: C. krusei strain 766-1; for MIC, C. krusei Q. C: C. krusei strain Q. C; for MIC, C. parapsilosis Q. C.: C. parapsilosis strain Q. C.; for MIC, Candida albicans 1.549: Candida albicans strain 1.549; for MIC, Candida albicans A 26: Candida albicans strain A 26; for MIC, Candida albicans Y-01-19: Candida albicans strain Y-01-19
[3] = system: Cryptococcus neoformans; assay: In vitro MIC, NCCLS M27A, Cryptococcus neoformans; format: cell-based; parameters: MIC, C. neoformans I: unit not given beside the values; MIC, C. neoformans M 106: unit not given here; conditions: for MIC, C. neoformans I: C. neoformans strain I; for MIC, C. neoformans M 106: C. neoformans strain M 106
[4] = system: Histoplasma capsulatum; format: cell-based

Structure (SMILES) | MIC, A. fumigatus 1008 [1] | MIC, C. glabrata 90030 [2] | MIC, C. krusei 766-1 [2] | MIC, C. krusei Q. C [2] | MIC, C. parapsilosis Q. C. [2] | MIC, Candida albicans 1.549 [2] | MIC, Candida albicans A 26 [2] | MIC, Candida albicans Y-01-19 [2] | MIC, Candida tropicalis ATCC [2] | MIC, C. neoformans I [3] | MIC, C. neoformans M 106 [3] | MIC, H. capsulatum [4] [µg/mL] | melting point [°C]
Cc1ccc(N2CCN(c3ccc(-n4cnn(CC(O)(Cn5cncn5)c5ccc(F)cc5F)c4=O)cc3)CC2)c(C)c1 (centres unmarked) [Compound 54, 2-[2-(2,4-Difluorophenyl)-2-hydroxy-3-(1H-1,2,4-triazol-1-yl)propyl]-4-{4-[4-(2,4-dimethylphenyl)-1-piperazinyl]phenyl}-3-(2H,4H)-1,2,4-triazolone] | 2.00 | 1.00 | 0.50 | 0.12 | <0.03 | 8.00 | <0.03 | 0.12 | <0.03 | <0.03 | <0.03 | 0.06 (≈ 0.102 µM) | 76 to 77
COc1ccccc1N1CCN(c2ccc(-n3cnn(CC(O)(Cn4cncn4)c4ccc(F)cc4F)c3=O)cc2)CC1 (centres unmarked) [Compound 42, 2-[2-(2,4-Difluorophenyl)-2-hydroxy-3-(1H-1,2,4-triazol-1-yl)propyl]-4-{4-[4-(2-methoxyphenyl)-1-piperazinyl]phenyl}-3-(2H,4H)-1,2,4-triazolone] | >12.5 | 1.56 | 3.12 | 1.56 | <0.02 | 0.40 | 0.05 | 12.50 | 12.50 | 0.20 | 0.80 | 0.05 (≈ 0.0849 µM) | 95 to 97
Cc1ccc(N2CCN(c3ccc(-n4cnn(CC(O)(Cn5cncn5)c5ccc(F)cc5F)c4=O)cc3)CC2)cc1 (centres unmarked) [Compound 39, 2-[2-(2,4-Difluorophenyl)-2-hydroxy-3-(1H-1,2,4-triazol-1-yl)propyl]-4-{4-[4-(4-methylphenyl)-1-piperazinyl]phenyl}-3-(2H,4H)-1,2,4-triazolone] | 6.25 | 0.10 | 0.80 | 0.10 | <0.02 | 0.10 | <0.02 | 0.02 | 6.25 | <0.02 | 0.05 | 0.05 (≈ 0.0873 µM) | 146 to 148
Nc1ccc(N2CCN(c3ccc(-n4cnn(CC(O)(Cn5cncn5)c5ccc(F)cc5F)c4=O)cc3)CC2)c(N)c1 (centres unmarked) [Compound 38, 2-[2-(2,4-Difluorophenyl)-2-hydroxy-3-(1H-1,2,4-triazol-1-yl)propyl]-4-{4-[4-(2,4-diaminophenyl)-1-piperazinyl]phenyl}-3-(2H,4H)-1,2,4-triazolone] | >16 | >16 | >16 | >16 | >16 | >16 | >16 | >16 | >16 | >16 | >16 | > 16 | 215 to 222
O=c1n(-c2ccc(N3CCN(c4ccc(F)c(Cl)c4)CC3)cc2)cnn1CC(O)(Cn1cncn1)c1ccc(F)cc1F (centres unmarked) [Compound 53, 2-[2-(2,4-Difluorophenyl)-2-hydroxy-3-(1H-1,2,4-triazol-1-yl)propyl]-4-{4-[4-(3-chloro-4-fluorophenyl)-1-piperazinyl]phenyl}-3-(2H,4H)-1,2,4-triazolone] | 4.00 | 0.50 | 0.50 | 0.12 | <0.03 | 0.06 | <0.03 | <0.03 | <0.03 | <0.03 | <0.03 | < 0.03 | 182 to 185
